Results on 3 molecules are retold here after PMC4457528, “Identification of Novel Small Molecule Inhibitors of Oncogenic RET Kinase” (PLoS ONE, 2015).

Read-outs that look alike come from different tables or passages of the source. A value given as a limit tells only on which side of the number the result lay.

Holding throughout (assay): KinomeScan kinase panel, single concentration 10 µM
What all share (assay type): binding

Assay [1] addresses T1, KinomeScan kinase panel (Homo sapiens, UniProt P10721, V559D).
T1 construct: purchased DiscoveRx (KinomeScan)
To be noted: KIT(V559D), 10 µM; read-out: score (%).

The target of assay [2] is T2, KinomeScan kinase panel (Homo sapiens, UniProt O95835).
T2 construct: purchased DiscoveRx (KinomeScan)
T2 sequence (O95835 1-1130): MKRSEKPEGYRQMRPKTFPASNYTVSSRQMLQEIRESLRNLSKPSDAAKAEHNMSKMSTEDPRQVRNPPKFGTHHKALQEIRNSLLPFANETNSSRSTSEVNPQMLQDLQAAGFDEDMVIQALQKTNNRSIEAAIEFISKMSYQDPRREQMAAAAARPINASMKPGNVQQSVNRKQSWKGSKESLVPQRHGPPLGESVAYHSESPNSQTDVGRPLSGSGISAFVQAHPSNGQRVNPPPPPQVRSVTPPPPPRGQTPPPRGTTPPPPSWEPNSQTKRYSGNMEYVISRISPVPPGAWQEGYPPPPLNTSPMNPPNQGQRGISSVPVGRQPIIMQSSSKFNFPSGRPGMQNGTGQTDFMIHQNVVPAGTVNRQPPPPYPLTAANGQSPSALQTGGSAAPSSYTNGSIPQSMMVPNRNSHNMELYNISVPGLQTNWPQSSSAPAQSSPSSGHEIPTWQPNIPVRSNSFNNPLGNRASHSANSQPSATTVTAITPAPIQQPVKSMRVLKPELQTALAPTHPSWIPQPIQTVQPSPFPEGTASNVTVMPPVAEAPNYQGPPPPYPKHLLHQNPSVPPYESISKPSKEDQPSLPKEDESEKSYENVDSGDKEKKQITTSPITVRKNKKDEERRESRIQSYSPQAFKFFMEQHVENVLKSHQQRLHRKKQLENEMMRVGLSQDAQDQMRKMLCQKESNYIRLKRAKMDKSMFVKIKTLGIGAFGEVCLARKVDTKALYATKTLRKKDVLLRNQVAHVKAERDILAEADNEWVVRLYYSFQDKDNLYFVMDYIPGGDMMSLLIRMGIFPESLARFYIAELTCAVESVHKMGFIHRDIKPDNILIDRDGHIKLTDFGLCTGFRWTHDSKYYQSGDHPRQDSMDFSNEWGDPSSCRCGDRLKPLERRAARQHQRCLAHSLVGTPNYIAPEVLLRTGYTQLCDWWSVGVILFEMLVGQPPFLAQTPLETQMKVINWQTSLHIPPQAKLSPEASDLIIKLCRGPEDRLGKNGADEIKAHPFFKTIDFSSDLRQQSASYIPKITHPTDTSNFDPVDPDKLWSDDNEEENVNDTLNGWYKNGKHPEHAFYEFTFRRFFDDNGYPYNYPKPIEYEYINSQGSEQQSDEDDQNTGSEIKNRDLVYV
The following applies: LATS1, 10 µM; read-out: score (%).

Assay [3] concerns the target T3, KinomeScan kinase panel (Homo sapiens, UniProt O14920).
T3 construct: purchased DiscoveRx (KinomeScan)
T3 sequence (O14920 1-756): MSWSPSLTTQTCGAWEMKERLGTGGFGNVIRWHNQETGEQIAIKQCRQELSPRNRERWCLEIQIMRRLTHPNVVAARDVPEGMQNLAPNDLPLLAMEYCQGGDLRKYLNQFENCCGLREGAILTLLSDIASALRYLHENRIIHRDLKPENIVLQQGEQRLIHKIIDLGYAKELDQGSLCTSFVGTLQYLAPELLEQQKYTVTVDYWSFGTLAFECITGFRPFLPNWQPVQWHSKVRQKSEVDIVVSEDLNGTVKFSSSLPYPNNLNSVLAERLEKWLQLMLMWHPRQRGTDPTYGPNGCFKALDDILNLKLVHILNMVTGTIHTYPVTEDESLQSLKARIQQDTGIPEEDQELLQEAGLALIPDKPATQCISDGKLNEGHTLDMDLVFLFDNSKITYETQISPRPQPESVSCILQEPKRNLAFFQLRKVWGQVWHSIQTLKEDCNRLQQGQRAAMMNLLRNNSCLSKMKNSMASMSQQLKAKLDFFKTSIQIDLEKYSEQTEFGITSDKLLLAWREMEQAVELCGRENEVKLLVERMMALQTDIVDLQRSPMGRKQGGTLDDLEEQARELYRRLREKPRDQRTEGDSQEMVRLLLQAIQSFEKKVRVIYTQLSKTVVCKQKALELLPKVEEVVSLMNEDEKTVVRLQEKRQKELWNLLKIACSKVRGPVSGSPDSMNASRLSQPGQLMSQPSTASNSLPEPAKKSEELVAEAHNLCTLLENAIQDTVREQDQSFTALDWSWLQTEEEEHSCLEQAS
To be noted: IKK-beta, 10 µM; read-out: score (%).

In assay [4] the target is T4, KinomeScan kinase panel (Homo sapiens, UniProt P07332).
T4 construct: purchased DiscoveRx (KinomeScan)
To be noted: FES, 10 µM; read-out: score (%).

For assay [5], the target named is T5, KinomeScan kinase panel (Homo sapiens, UniProt Q14289).
T5 construct: purchased DiscoveRx (KinomeScan)
The following applies: read-out: score (%).

The target in assay [6] is T6, KinomeScan kinase panel (Homo sapiens, UniProt Q07912).
T6 construct: purchased DiscoveRx (KinomeScan)
To be noted: read-out: score (%).

Assay [7] has as its target T7, KinomeScan kinase panel (Homo sapiens, UniProt P45983).
T7 construct: purchased DiscoveRx (KinomeScan)
To be noted: JNK1, 10 µM.

Assay [8] deals with T8, KinomeScan kinase panel (Homo sapiens, UniProt Q86Z02).
T8 construct: purchased DiscoveRx (KinomeScan)
To be noted: HIPK1, 10 µM; read-out: score (%).

For assay [9], the target named is T9, KinomeScan kinase panel (Homo sapiens, UniProt P24941).
T9 construct: purchased DiscoveRx (KinomeScan)
The following applies: CDK2, 10 µM.

Assay [10] has as its target T10, KinomeScan kinase panel (Homo sapiens, UniProt Q9Y463).
T10 construct: purchased DiscoveRx (KinomeScan)
The following applies: DYRK1B, 10 µM; read-out: score (%).

Assay [11] addresses T11, KinomeScan kinase panel (Homo sapiens, UniProt P09769).
T11 construct: purchased DiscoveRx (KinomeScan)
The following applies: FGR, 10 µM; read-out: score (%).

T5 sequence (Q14289 whole entry): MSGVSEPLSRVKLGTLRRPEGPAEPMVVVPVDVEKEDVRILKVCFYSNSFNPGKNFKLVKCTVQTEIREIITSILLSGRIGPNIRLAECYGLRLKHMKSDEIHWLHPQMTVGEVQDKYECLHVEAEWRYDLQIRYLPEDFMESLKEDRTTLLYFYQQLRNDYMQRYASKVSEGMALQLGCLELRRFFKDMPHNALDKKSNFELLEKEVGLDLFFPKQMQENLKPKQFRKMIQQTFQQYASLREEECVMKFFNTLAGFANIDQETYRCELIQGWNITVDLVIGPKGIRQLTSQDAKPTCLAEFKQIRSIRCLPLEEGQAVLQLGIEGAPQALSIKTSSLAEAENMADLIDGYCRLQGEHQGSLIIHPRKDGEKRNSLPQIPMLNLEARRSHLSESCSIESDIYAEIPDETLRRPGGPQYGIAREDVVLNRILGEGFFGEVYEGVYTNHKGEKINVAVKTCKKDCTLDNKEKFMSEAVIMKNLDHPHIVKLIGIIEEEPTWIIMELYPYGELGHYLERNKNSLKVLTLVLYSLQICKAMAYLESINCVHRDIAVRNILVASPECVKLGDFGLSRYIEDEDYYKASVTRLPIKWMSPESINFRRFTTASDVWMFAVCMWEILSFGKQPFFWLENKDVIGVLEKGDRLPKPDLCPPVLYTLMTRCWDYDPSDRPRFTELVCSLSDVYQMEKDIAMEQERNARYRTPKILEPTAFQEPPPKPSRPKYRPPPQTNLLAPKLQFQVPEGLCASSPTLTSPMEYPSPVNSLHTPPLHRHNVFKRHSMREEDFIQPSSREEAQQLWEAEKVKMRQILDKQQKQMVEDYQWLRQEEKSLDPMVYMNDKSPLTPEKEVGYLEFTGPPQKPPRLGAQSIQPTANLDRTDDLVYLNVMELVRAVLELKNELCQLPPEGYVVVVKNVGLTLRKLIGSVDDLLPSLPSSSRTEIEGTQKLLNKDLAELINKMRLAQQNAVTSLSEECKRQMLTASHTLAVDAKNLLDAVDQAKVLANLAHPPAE
T1 sequence (P10721 26-976 V559D): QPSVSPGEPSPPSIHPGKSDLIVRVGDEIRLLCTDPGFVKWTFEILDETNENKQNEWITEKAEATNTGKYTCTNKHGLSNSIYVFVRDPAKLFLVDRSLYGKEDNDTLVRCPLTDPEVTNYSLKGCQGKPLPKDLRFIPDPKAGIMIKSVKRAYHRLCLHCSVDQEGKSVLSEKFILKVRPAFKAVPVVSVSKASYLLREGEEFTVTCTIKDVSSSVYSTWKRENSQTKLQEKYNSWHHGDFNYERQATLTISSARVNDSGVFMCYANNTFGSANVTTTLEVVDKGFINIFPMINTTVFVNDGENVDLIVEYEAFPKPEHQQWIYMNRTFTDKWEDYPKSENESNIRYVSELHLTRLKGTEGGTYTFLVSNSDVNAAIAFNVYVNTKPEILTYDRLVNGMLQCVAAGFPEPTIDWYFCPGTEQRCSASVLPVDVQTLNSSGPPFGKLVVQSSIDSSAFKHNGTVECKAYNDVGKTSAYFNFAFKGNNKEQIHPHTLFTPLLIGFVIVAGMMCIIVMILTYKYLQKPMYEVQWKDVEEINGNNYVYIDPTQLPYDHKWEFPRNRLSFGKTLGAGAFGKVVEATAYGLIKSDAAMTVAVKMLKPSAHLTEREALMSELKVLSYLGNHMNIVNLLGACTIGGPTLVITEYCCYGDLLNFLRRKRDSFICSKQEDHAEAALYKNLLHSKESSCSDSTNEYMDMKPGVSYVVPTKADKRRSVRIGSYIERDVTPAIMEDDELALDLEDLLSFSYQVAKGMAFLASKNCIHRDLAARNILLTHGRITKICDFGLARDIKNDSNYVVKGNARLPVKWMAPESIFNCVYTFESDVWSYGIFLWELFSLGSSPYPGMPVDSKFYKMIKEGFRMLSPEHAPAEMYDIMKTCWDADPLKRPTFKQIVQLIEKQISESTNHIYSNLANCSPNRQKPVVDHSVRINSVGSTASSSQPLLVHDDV
T7 sequence (P45983 whole entry): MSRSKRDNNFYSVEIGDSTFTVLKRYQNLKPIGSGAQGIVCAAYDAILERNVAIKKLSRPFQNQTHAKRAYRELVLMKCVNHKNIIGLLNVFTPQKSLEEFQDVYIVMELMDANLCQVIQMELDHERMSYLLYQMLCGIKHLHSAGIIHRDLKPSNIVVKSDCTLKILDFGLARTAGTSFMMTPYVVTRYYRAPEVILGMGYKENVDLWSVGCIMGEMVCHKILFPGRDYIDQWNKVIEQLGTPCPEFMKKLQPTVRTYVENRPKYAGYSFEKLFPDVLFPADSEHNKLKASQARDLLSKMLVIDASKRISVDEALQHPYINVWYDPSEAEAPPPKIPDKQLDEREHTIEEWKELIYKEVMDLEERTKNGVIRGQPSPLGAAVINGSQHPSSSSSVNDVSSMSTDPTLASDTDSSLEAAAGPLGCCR
T6 sequence (Q07912 whole entry): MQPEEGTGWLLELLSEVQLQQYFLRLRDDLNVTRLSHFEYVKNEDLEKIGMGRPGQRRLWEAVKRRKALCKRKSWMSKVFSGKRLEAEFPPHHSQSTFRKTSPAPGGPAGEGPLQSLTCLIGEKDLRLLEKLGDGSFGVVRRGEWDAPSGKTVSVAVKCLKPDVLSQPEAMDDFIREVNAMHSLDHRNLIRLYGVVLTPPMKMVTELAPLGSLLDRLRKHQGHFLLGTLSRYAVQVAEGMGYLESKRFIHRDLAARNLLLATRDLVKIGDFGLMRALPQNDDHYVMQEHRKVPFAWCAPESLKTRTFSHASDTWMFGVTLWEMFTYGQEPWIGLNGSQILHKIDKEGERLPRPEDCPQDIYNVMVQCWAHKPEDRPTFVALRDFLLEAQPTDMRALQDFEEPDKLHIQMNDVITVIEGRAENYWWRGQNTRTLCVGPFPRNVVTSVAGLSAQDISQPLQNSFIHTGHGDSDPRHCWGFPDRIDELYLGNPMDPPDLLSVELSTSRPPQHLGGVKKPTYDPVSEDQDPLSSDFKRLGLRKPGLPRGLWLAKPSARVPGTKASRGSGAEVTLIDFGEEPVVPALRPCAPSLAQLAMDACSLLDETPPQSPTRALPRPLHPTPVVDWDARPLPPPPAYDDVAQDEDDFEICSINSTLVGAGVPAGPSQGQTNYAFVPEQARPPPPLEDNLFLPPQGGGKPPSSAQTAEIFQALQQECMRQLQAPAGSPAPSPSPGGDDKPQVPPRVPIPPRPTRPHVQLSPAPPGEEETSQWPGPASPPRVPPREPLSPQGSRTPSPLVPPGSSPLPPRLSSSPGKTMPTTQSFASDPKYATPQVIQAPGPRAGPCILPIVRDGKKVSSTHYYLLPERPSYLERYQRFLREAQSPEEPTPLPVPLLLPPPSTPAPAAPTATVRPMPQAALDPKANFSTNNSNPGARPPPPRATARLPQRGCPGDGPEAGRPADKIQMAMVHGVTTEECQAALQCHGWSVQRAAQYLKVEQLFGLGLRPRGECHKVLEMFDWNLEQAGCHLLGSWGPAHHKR
T8 sequence (Q86Z02 whole entry): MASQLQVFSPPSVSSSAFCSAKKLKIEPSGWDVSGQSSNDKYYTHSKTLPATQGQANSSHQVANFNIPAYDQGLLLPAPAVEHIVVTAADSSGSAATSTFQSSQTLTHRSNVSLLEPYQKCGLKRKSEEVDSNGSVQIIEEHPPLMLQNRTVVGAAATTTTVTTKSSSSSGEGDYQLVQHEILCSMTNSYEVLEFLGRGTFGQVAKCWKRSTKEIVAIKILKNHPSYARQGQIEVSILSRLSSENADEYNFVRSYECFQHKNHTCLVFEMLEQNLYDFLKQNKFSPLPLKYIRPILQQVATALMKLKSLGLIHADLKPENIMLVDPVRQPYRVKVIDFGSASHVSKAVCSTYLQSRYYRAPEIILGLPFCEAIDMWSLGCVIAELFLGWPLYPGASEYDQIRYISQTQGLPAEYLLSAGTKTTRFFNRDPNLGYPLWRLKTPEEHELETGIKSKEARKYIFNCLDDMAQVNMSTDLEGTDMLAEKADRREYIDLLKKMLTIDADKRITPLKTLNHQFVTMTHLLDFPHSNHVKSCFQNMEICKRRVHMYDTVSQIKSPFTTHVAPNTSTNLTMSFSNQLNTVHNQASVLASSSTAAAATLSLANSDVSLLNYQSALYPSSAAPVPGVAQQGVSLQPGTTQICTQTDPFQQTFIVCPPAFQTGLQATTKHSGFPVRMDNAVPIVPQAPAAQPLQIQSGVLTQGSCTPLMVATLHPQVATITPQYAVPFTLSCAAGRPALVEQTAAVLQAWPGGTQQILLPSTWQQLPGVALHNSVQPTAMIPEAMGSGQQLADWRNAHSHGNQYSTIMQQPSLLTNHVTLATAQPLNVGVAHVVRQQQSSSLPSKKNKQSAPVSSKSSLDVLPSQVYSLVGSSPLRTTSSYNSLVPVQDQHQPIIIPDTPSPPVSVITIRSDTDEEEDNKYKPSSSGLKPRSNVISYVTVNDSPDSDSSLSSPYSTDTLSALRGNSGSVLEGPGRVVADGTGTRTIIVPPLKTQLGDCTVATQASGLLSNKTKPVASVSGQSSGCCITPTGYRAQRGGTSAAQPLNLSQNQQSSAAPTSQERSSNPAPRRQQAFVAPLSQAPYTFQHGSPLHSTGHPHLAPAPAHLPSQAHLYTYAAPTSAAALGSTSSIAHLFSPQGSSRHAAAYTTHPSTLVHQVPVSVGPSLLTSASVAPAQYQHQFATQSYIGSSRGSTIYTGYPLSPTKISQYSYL

On to `CCN1CCN(Cc2ccc(NC(=O)c3ccc(C)c(NC(=O)c4cncc(-c5cccs5)c4)c3)cc2C(F)(F)F)CC1` [ALW-II-41-27], for which the remaining binding at 10 µM in [1] was 0.1%; in assay [2] it was greater than 30%; in assay [3], 1.2%; in assay [4] it was 0.8%; in assay [5] (PYK2, 10 µM), 2.4%; in assay [6] (kinase TNK2, 10 µM), 2.1%. For the same molecule, the remaining binding at 10 µM was greater than 30% in assay [8], 12% in assay [10] and 0.2% in assay [11]. Also, the “score (%)” value in assay [7] and in assay [9] was “nb (Hits values higher than 30% were considered negative (no binding: nb))” in each case.

As to `CCN1CCN(Cc2ccc(NC(=O)c3ccc(C)c(/C=C/c4cnc5[nH]ccc5c4Cl)c3)cc2C(F)(F)F)CC1` [HG-6-63-01, (E)-3-(2-(4-chloro-1H-pyrrolo[2,3-b]pyridin-5-yl)vinyl)-N-(4-((4-ethylpiperazin-1-yl)methyl)-3-(trifluoromethyl)phenyl)-4-methylbenzamide], the remaining binding at 10 µM is 0% in [1]; greater than 30% in [2]; 5.9% in assay [3]; 0.55% in assay [4]; 5.5% in assay [5] (PTK2B, 10 µM); 0.5% in assay [6] (TNK2, 10 µM). Moreover, the remaining binding at 10 µM is greater than 30% in assay [8], 22% in assay [10] and 0.35% in [11]. Moreover, the “score (%)” value is on record as 6.6% in [7] and “nb (Hits values higher than 30% were considered negative (no binding: nb))” in assay [9].

For the molecule `CCN1CCN(Cc2ccc(NC(=O)c3ccc(C)c(C#Cc4cccnc4)c3)cc2C(F)(F)F)CC1` [XMD15-44], the remaining binding at 10 µM in [1] is 0%; in assay [2], 20%; in [3], 0%; in assay [4], 0.75%; in [5] (kinase PYK2, 10 µM), 0.4%; in assay [6] (kinase TNK2, 10 µM) it was 11%. Moreover, the figures for the remaining binding at 10 µM in assay [8], in assay [10] and in [11] were greater than 30%, greater than 30% and 0%, respectively. Moreover, the “score (%)” value in assay [7] was determined as 0.55%; in assay [9], 10%.
